The values below come from ChEMBL document CHEMBL1144128, “A new bisabolene epoxide from Tussilago farfara, and inhibition of nitric oxide synthesis in LPS-activated macrophages” (J Nat Prod, 1999).

In experiment [1] the test system is RAW264.7. Briefly: Inhibition of LPS-induced nitric oxide synthesis in mouse RAW264.7 macrophages at 0.1 uM after 18 hrs of LPS challenge measured after 18 hrs by ELISA relative to LPS-treated control. Format: functional. As to conditions: RAW264.7, 18 h. (In general: ELISA stands for enzyme-linked immunosorbent assay.)
For experiment [2], the system named is RAW264.7. As to the kind of experiment: Inhibition of LPS-induced nitric oxide synthesis in mouse RAW264.7 macrophages at 0.1 uM pretreated 18 hrs before arginine challenge assessed after 18 hrs by ELISA relative to LPS-treated control. Format: functional.
For experiment [3], the system named is RAW264.7. As to the kind of experiment: Inhibition of LPS-induced nitric oxide synthesis in mouse RAW264.7 macrophages at 0.1 uM after 18 hrs by ELISA relative to LPS-treated control. Type of experiment: functional. As to conditions: RAW264.7, 18 h.
For experiment [4], the system named is RAW264.7. As to the kind of experiment: Inhibition of LPS-induced nitric oxide synthesis in mouse RAW264.7 macrophages after 18 hrs of LPS challenge measured after 18 hrs by ELISA relative to LPS-treated control. Format: functional.
Experiment [5] has as its system RAW264.7. Briefly: Inhibition of LPS-induced nitric oxide synthesis in mouse RAW264.7 macrophages at 30 uM after 18 hrs of LPS challenge measured after 18 hrs by ELISA relative to LPS-treated control. The note with it: RAW264.7, 18 h. Type of experiment: functional.
For experiment [6], the system named is RAW264.7. Briefly: Inhibition of LPS-induced nitric oxide synthesis in mouse RAW264.7 macrophages at 30 uM pretreated 18 hrs before arginine challenge assessed after 18 hrs by ELISA relative to LPS-treated control. Format: functional.
Experiment [7] deals with RAW264.7. Briefly: Inhibition of LPS-induced nitric oxide synthesis in mouse RAW264.7 macrophages at 30 uM after 18 hrs by ELISA relative to LPS-treated control. Format: functional. As to conditions: RAW264.7, 18 h.
The subject of experiment [8] is RAW264.7. Briefly: Inhibition of LPS-induced nitric oxide synthesis in mouse RAW264.7 macrophages after 18 hrs by ELISA. Format: functional, cell-based.

Molecules are shown by their SMILES.

As usually defined, the inhibition is the percentage by which the read-out fell short of the control. Turning to `CNC(=N)NCCC[C@H](N)C(=O)O` [TILARGININE], the inhibition at 0.1 µM turned out to be 53.3% with RAW264.7 [1], 25.8% in the experiment on RAW264.7 [2] and 60.5% in the experiment on RAW264.7 [3].
`N=C(N)NN` [PIMAGEDINE]: in the experiment with RAW264.7 [4], the “inhibition (INH)” value worked out at 78.8%.
A word on the IC50: it is the concentration that gives 50% inhibition. A higher IC50 goes with a need for much substance. In the case of `C=C(C(CC=C(C)C)OC(=O)/C(C)=C\C)C1[C@H](OC(C)=O)C(=O)[C@@]2(C)O[C@H]2[C@@H]1OC(C)=O` (some centres undefined), the inhibition at 30 µM with RAW264.7 [5] stood at 11.1%; in the experiment with RAW264.7 [6], 68.9%; with RAW264.7 [7], 71.1%. For the same compound, the Activity result with RAW264.7 [8] is “Dose-dependent effect”. The compound also registered an IC50 with RAW264.7 [8] (RAW264.7, 18 h) of 8.9 µM.
